Patent US4115453A (Miles Laboratories, Inc., priority 1977, dated 1978)

What was measured:
gastric secretion = assay: Test B: Inhibition of Rodent Gastric Secretion (pylorus-ligated rat); format: in vivo; details: subcutaneous, 2 x 1.5 mg/kg (total 3.0 mg/kg), 4 hours after pyloric ligation
Procedure: A procedure based on that described by Lipmann (J. Pharm. Pharmacol., 21:335 [ 1968]) was used to assess the influence of test compounds on gastric secretion. Rats of one sex weighing 150 to 200 g were randomly divided into groups of six animals each and fasted for 48 hours previously to the experiments, water being available adlibitum. The animals were anesthetized with ether, the abdomen was opened through a midline incision and the pylorus was ligated. Test compounds were diluted from stock solution so as to administer a dose of 1.5 mg/kg in a volume equivalent to 1 ml/kg. Subcutaneous injections were applied immediately after surgery and again 2 hours later, so that a total dose of 3.0 mg/kg was administered. Dilutions were made with phosphate buffer (pH 7.38) as recommended by Lee et al. (Prostaglandins 3:29 [ 1973]), in order to insure adequate stability of drugs at the subcutaneous depot. Each compound was tested in one group of rats; an additional control group received only the vehicle.
Four hours after pyloric ligation the animals were killed with ether, the cardias ligated and the stomachs removed. The volume of gastric secretion was measured and the contents centrifuged at 5000 rpm for 10 minutes. Total acid in the supernatant was titrated against a 0.1 N sodium hydroxide solution and the amount expressed in mEq.
Volume and total acid values of the treated group were compared with those of the controls by the "T" test. Antisecretory activity was scored according to the following scale: […]

[1] = system: human platelet aggregation; assay: Test A: Inhibition of Human Platelet Aggregation; format: cell-based; details: human platelet rich plasma, in vitro, collagen-induced, 37° C, 15 minutes
Procedure: The ability of test compounds to inhibit platelet aggreagation was determined by a modification of the turbidometric technique of Born (Nature, 194: 927 [1962]). Blood was collected from human volunteer who had not ingested aspirin or aspirin-containing products within the preceding two weeks in heparinized containers and was allowed to settle for one (1) hour. The platelet rich plasma (prp) supernates were collected and cooled. Siliconized glassware was used throughout.
In a representative assay 1.9 ml of PRP and 0.2 ml of test compound at the appropriate concentrations (0.001 to 100 mcgm), or 0.2 ml of distilled water (control procedure) were placed in sample cuvettes. The cuvettes were placed in a 37° C incubation block for 15 minutes, and then in a spectrophotometer linked to a strip chart recorder. After 30-60 seconds, 0.2 ml of a solution, prepared by diluting a calf-skin collagen solution 1:9 with Tyrodes' Solution, was added to each cuvette. Platelet aggregation was evidenced by a decrease in optical density.
An ED50 value was then determined graphically.

| SMILES | Activity Value Test B (% decrease in acidity) (gastric secretion) | Activity Value Test A (ED50, inhibition of platelet aggregation) [1] |
| --- | --- | --- |
| O=C(O)CCCCCC[C@H]1C(=O)CC[C@@H]1/C=C/[C@H](O)CCCCC1CCCC2CCCCC21 (relative stereo) [TR-4190, dl-7-{5-oxo-2R-[3R-hydroxy-7-(bicyclo[4.4.0]dec-2-yl)-1E-heptenyl]cyclopent-1R-yl}heptanoic acid] | 0 (<26) | 1 (>1.0) |
| O=C(O)CCC/C=C\C[C@H]1C(=O)CC[C@@H]1/C=C/[C@H](O)CCCCC1CCCC2CCCCC21 (mixture of isomers) [TR-4173, dl-7-{5-oxo-2R-[3R-hydroxy-7-(bicyclo[4.4.0]dec-2-yl)-1E-heptenyl]cyclopent-1R-yl}hept-5Z-enoic acid] | – | 1 (>1.0) |
| COC(=O)CCCCCC[C@@H]1[C@@H](/C=C/[C@@H](O)C2CC3CCC3C2)[C@H](O)C[C@@H]1O (stereo partly drawn) [TR-4711, methyl 7-{3R, 5S-dihydroxy-2R-[3S-hydroxy-3-(bicyclo[3.2.0]hept-3-yl)-1E-propenyl]cyclopent-1R-yl}heptanoate] | 1 (26-50, not significant) | – |
| O=C(O)CCC/C=C\C[C@H]1C(=O)CC[C@@H]1/C=C/[C@H](O)CCCCC1CCCC2CCCCC21 (relative stereo) [TR-4174, dl-7-{5-oxo-2R-[3R-hydroxy-7-(bicyclo[4.4.0]dec-2-yl)-1E-heptenyl]cyclopent-1R-yl}-hept-5Z-enoic acid] | – | 1 (>1.0) |
| COC(=O)CCCCCC[C@@H]1[C@@H](/C=C/[C@@H](O)C2CC3CCC3C2)[C@H](O)C[C@H]1O (stereo partly drawn) [TR-4712, methyl 7-{3R,5R-dihydroxy-2R-[3S-hydroxy-3-(bicyclo[3.2.0]hept-3-yl)-1E-propenyl]cyclopent-1R-yl}heptanoate] | 2 (26-50, significant) | – |
| O=C(O)CCCCCC[C@H]1C(=O)CC[C@@H]1/C=C/[C@@H](O)CCCCC1CCCC2CCCCC21 (relative stereo) [TR-4189, dl-7-{5-oxo-2R[3S-hydroxy-7-(bicyclo[4.4.0]dec-2-yl)-1E-heptenyl]cyclopent-1R-yl}heptanoic acid] | 0 (<26) | 1 (>1.0) |
